Results on one compound are retold here after US10017520B2, “Myc modulators and uses thereof” (Massachusetts Institute of Technology, priority 2014, dated 2018).

The nature of data set [1]: Intrinsic clearance (liver microsomes, human), half-life. The data set is classed as in vitro ADME. (Liver microsomes are a subcellular fraction often used to study metabolism.)
For the next data set, the system named is Namalwa cells. The data set is described as follows: Cell viability, CELL TITER GLO assay (Promega), Namalwa cells. It counts as cell-based. On the procedure: (§1) FIGS. 2A to 2E show exemplary results of cell viability assay of compound 1. […] Results were expressed as a mean+/−SEM (n=3). RLU: Relative Luminescence Units.
(§2) The effect of compound 1 on cell viability in several cancer cell lines were determined. The cancer cell lines employed in the assay included those corresponding to hematopoietic and solid tumors. Exemplary results are shown in FIGS. 2A to 2E, where viability was assessed by CELL TITER GLO assay (Promega). Compound 1 was also submitted in a blinded fashion to the National Cancer Institute's CTD cancer cell line profiling pipeline, which enabled sensitivity profiling in about 800 cancer cell lines with annotation of specific genomic lesions that impart on human cancers (FIGS. 3A to 3B). […] The effects of other compounds described herein on cell viability in several cancer cell lines were also determined, and exemplary results are shown in Table 2, where viability was assessed by CELL TITER GLO assay (Promega).
(In general: Cellular ATP, detected with luciferase, serves as a proxy for viable cell number.)

In data set [2] the test system is c-Myc. The data set is described as follows: Affinity-based pull down of c-Myc from nuclear lysate with compound-loaded beads, Western blot. The data set is classed as binding. On the procedure: Compound 19 beads (Figure SA) and compound 55 beads (FIG. 5B) were used. Results are expressed as a mean+/−SEM (n=3). Compound 55 beads were formed by a method analogous to the method shown in FIG. 4, where beads were linked to the —NH2 moiety of compound 55 by forming a urea moiety.
In order to explore the mechanism of action of compound 1, preliminary target identification experiments involving affinity-based pull downs were carried out. […] The structure of compound 19 allowed for linking compound 1 to beads (AFFI-GEL 102, Bio-Rad) (FIG. 4).
The linkage site to the bead via the nitrogen atom of the benzimidazolyl moiety was the original site of attachment to the small-molecule microarray and represented the orientation in the original screen.
In general terms: In western blotting, separated proteins are transferred to a membrane and probed.

For the next data set, the system named is NCIH1975 cells. Description: Cell viability, CELL TITER GLO assay (Promega), NCIH1975 cells. The settings on record: Homo sapiens, NCI-H1975. The data set is classed as cell-based. On the procedure:
as §1, §2

Data set [3] is described as follows: Aqueous solubility at 37° C. It counts as physicochemical.
For a further data set, the system named is cancer cell lines. The data set is described as follows: Cell viability in cancer cell lines (CELL TITER GLO; CTD cancer cell line profiling). It counts as cell-based. On the procedure:
as §1
FIGS. 3A to 3B show CTD^2 viability data profile of cancer cell lines treated with compound 1. FIG. 3A: dose response curves of 789 cell lines treated with compound 1 for 72 hours. FIG. 3B: relative percent composition of cell lineages and enrichment analysis after treatment with compound 1.
as §2

In another data set the test system is Eu-Myc Arf −/− cells. The data set is described as follows: Cell viability, CELL TITER GLO assay (Promega), Eu-Myc Arf −/− cells. It counts as cell-based. The method, then: as §2
Data set [4] deals with c-Myc. The data set is described as follows: c-Myc reporter gene assay (Qiagen) in HEK293T cells. It counts as cell-based. The settings on record: Homo sapiens, HEK-293T, 16 h, treatment 16 hours, Firefly/Renilla ratio. On the procedure:
Compound 1's activity against Myc was measured as a Firefly/Renilla ratio, using the Myc reporter assay (Qiagen) in HEK293T cells after treatment with compound 1 for 16 hours. Results are expressed as a mean+/−SD (n=3). SD: standard deviation.
Select compounds described herein that were SMM assay positives were evaluated in several versions of a c-Myc reporter gene assay, including a commercial assay from Qiagen. The compounds' activities against c-Myc were measured as a Firefly/Renilla ratio, using the Myc reporter assay (Qiagen) in HEK293T cells after treatment with the compounds for 16 hours.

Values after ≈ are worked out from the molar mass of the structure shown. Read-outs that look alike come from different tables or passages of the source. Some results are limits rather than exact numbers.

In general, IC50 refers to the concentration needed to halve the response being measured. As usually defined, the solubility is the dissolved amount per volume that the medium holds. In the case of `CC(C)N1C(=O)S/C(=C\c2ccc(Sc3nc4ccccc4[nH]3)o2)C1=O` [Compound 1, (Z)-5-((5-((1H-benzo[d]imidazol-2-yl)thio)furan-2-yl)methylene)-3-isopropylthiazolidine-2,4-dione], in data set [1], the “Half-life, intrinsic clearance (liver microsomes, human)” value was determined as 22 min. The IC50 was 21.1 µM in the data set with Namalwa cells, 24.9 µM with NCIH1975 cells, 10.2 µM in the data set on Eu-Myc Arf −/− cells and 0.67 µM with c-Myc [4]. For the same compound, the “c-Myc levels pulled down with free compound as soluble competitor” value in the data set on c-Myc [2] (beads linked via nitrogen atom of the benzimidazolyl moiety (compound 55 beads)) is “decreased levels of c-Myc”. Further, the “c-Myc pulled down with free compound as soluble competitor” value with c-Myc [2] (compound 19 beads, nuclear lysate, 5 μM soluble competitor) is “less c-Myc pulled down”. Moreover, the solubility in data set [3] (aqueous buffer, PBS, pH 7.4, 37° C., read-out: Solubility at 37° C., aqueous solubility (PBS, pH 7.4)) is less than 1 µM; in data set [3] (fassgf or other biorelevant, simulated intestinal fluid, 37° C., read-out: Solubility at 37° C., aqueous solubility (simulated intestinal fluid)) it was 80.2 µM (≈ 30.9 µg/mL); in data set [3] (simulated gastric fluid, 37° C., read-out: Solubility at 37° C., aqueous solubility (simulated gastric fluid)), 62.7 µM (≈ 24.2 µg/mL). Moreover, the “effect on cell viability in 5 cancer cell lines” value in the data set with cancer cell lines (3 days, NCIH1975, SNUC5, Namalwa, KLP1, Hela, CELL TITER GLO) was “affected cell viability”. The “effect on cell viability in a variety of cancer cell lines” value with cancer cell lines (several cancer cell lines and CTD profiling of about 800 cancer cell lines, 72 hours) is listed as “demonstrated an effect in cell viability”.
